Assay results reported in patent US20230173018A1, “CASPOFUNGIN DERIVATIVES AND ASSAYS FOR EVALUATING ANTIFUNGAL TREATMENT EFFICACY” (priority 2020, published 2023).
≈ marks a conversion by molar mass, not a printed value. Like-named read-outs stand apart in the source and are kept apart here.

Columns and labels:
Type in all cases: cell-based
C. albicans CAF2-1 = assay: microbe, parasite or virus in culture
Text: (§1) The antifungal activities of compounds 1a, 1 and 2 (collectively: caspofungin derivatives) were compared to that of caspofungin and CSF-BOD using a panel of 49 C. albicans and C. glabrata strains (Tables 1 and 2). The panel included ATCC strains and clinical isolates as well a collection of caspofungin-responsive strains and their corresponding isogenic caspofungin-resistant derivatives, constructed by introducing point mutations within and near the defined hotspots in the FKS1 and/or FKS2 genes of the GS complex. Minimal inhibitory concentration (MIC) values for all strains were determined using the broth double dilution method and are summarized in FIG. 2 and Table 2. […] The clinical breakpoints (threshold) for caspofungin-resistance in C. albicans and C. glabrata are 1 μg/mL and 0.5 μg/mL, respectively.

[1] = tested on: C. glabrata T-193 (11-282); assay: MIC, broth double dilution
Text: as §1

C. glabrata CST34 = assay: MIC, broth double dilution; conditions: strain no. 21, C. glabrata CST34 (parental)
Text: as §1

[2] = tested on: C. glabrata T-190 (11-304); assay: MIC, broth double dilution
Text: as §1

[3] = tested on: C. glabrata T-984 (11-078); assay: MIC, broth double dilution
Text: as §1

C. albicans SC5314 = assay: MIC, broth double dilution; conditions: strain no. 1, C. albicans SC5314, WT
Text: as §1

C. albicans SN152 = assay: MIC, broth double dilution
Text: as §1

C. albicans ATCC 10231 = assay: MIC, broth double dilution
Text: as §1

C. glabrata ATCC 90030 = assay: MIC, broth double dilution
Text: as §1

C. albicans BWP17 = assay: MIC, broth double dilution
Text: as §1

[4] = tested on: C. glabrata T-982 (11-181); assay: MIC, broth double dilution
Text: as §1

C. albicans ATCC 24433 = assay: MIC, broth double dilution; conditions: strain no. 6, C. albicans ATCC 24433
Text: as §1

C. glabrata CST109 = assay: MIC, broth double dilution; conditions: strain no. 18, C. glabrata CST109 (parental)
Text: as §1

C. glabrata EF1620 = assay: MIC, broth double dilution; conditions: strain no. 31, C. glabrata EF1620
Text: as §1

C. glabrata ATCC 2001 = assay: MIC, broth double dilution
Text: as §1

[5] = tested on: panel of 49 C. albicans and C. glabrata strains; assay: Antifungal activity (MIC) compared to caspofungin over the panel; conditions: for antifungal activity based on MIC values: panel of 49 strains; for MIC values higher than the parent caspofungin: ratio to caspofungin MIC, FIG. 2, Table 2; for antifungal activity spectrum: resistant vs responsive strains of the panel
Text: as §1, with “Minimal inhibitory concentration (MIC) values for all strains were determined using the broth double dilution method and are summarized in FIG. 2 and Table 2.” left out, “respectively. […]” for “respectively.”

[6] = tested on: C. albicans SC5314 and SN152; assay: Competition for cellular uptake with probe 1, flow cytometry; conditions: added simultaneously with probe 1; caspofungin 1 μM, 10 μM; fluconazole 10 μM
Procedure: To determine if caspofungin competes for cellular uptake with fluorescent probe 1, both the drug and the probe were added simultaneously to cultures of strains SC5314 and SN152. The uptake of probe 1 was measured by flow cytometry every 15 minutes for 1 hour (FIG. 6B). […] No effect on the uptake of probe 1 was detected in cells co-treated with the antifungal azole drug fluconazole, which inhibits the biosynthesis of fungal membrane sterol, ergosterol.

C. albicans SC5314 cells = assay: Cell viability by propidium iodide (PI) staining, PBS vs YPAD; conditions: 1 μM
Procedure: To determine whether the caspofungin relocalization and apparent cell damage and death is a feature of caspofungin (and not only of the fluorescent caspofungin probe 1), cell viability was followed using propidium iodide (PI), a dye normally excluded from metabolically active cells.
Cell viability was compared in the presence and absence of 1 μM unlabeled caspofungin, using cells incubated either in PBS or in YPAD. […] Thus, cells exposed to caspofungin in nutrient-rich conditions become permeable to PI, an indicator of cell death. This observation explains the non-specific distribution of probe 1 in the cytoplasm after prolonged incubation (FIG. 7A). It is also consistent with the idea that plasma membrane permeabilization and cell death are likely accompanied by the loss of structural integrity of organelles, including the vacuoles detected here.

[7] = strain no. 10, CAF2-1, parental SC5314
[8] = strain no. 45, T-193 (11-282), clinical isolate
[9] = strain no. 42, T-190 (11-304), clinical isolate
[10] = strain no. 48, T-984 (11-078), clinical isolate
[11] = strain no. 11, C. albicans ATCC 10231
[12] = strain no. 16, C. glabrata ATCC 90030, WT
[13] = strain no. 46, T-982 (11-181), clinical isolate
[14] = strain no. 39, C. glabrata ATCC 2001
[15] = strain no. 5, C. albicans SN152
[16] = strain no. 9, BWP17, parental RM1000
[17] = Nakaseomyces glabratus, read-out: MIC

Structure (SMILES)	MIC (C. albicans CAF2-1; [7])	MIC [1, 8]	MIC (C. glabrata CST34)	MIC [2, 9]	MIC [3, 10]	MIC (C. albicans SC5314)	MIC (C. albicans ATCC 10231; [11])	MIC (C. glabrata ATCC 90030; [12])	MIC [4, 13]	MIC (C. albicans ATCC 24433)	MIC (C. glabrata CST109)	MIC (C. glabrata EF1620)	MIC (C. glabrata ATCC 2001; [14])	antifungal activity based on MIC values [5]	MIC values higher than the parent caspofungin [5]	antifungal activity spectrum [5]	MIC (C. albicans SN152; [15])	MIC (C. albicans BWP17; [16])	further results
CN(C)c1ccc2c(-c3ccc(C(=O)NCCCN=[N+]=[N-])cc3C(=O)[O-])c3ccc(=[N+](C)C)cc-3oc2c1 [Compound 5-TMR-azide]	>64 µg/mL	>64 µg/mL	>64 µg/mL	>64 µg/mL	>64 µg/mL	>64 µg/mL	>64 µg/mL	>64 µg/mL	>64 µg/mL	>64 µg/mL	>64 µg/mL	>64 µg/mL	>64 µg/mL						MIC (C. albicans SN152): >64 µg/mL; MIC (C. albicans BWP17): >64 µg/mL
CC[C@H](C)C[C@H](C)CCCCCCCCC(=O)N[C@H]1C[C@@H](O)[C@@H](NCCN)NC(=O)[C@@H]2[C@@H](O)CCN2C(=O)[C@H]([C@H](O)CCN)NC(=O)[C@H]([C@H](O)[C@@H](O)c2ccc(OCc3cn(CCCNC(=O)c4ccc(-c5c6ccc(=[N+](C)C)cc-6oc6cc(N(C)C)ccc56)c(C(=O)[O-])c4)nn3)cc2)NC(=O)[C@@H]2C[C@@H](O)CN2C(=O)[C@H]([C@@H](C)O)NC1=O [Compound 1]	0.5 µg/mL (≈ 0.304 µM)	1 µg/mL (≈ 0.608 µM)	0.5 µg/mL (≈ 0.304 µM)	0.5 µg/mL (≈ 0.304 µM)	0.5 µg/mL (≈ 0.304 µM)	0.25 µg/mL (≈ 0.152 µM)	0.5 µg/mL (≈ 0.304 µM)	1 µg/mL (≈ 0.608 µM)	0.5 µg/mL (≈ 0.304 µM)	0.5 µg/mL (≈ 0.304 µM)	1 µg/mL (≈ 0.608 µM)	0.5 µg/mL (≈ 0.304 µM)	1 µg/mL (≈ 0.608 µM)	retained antifungal activities	4-16	identical to that of caspofungin	0.25 µg/mL (≈ 0.152 µM)	0.25 µg/mL (≈ 0.152 µM)	
CC[C@H](C)C[C@H](C)CCCCCCCCC(=O)N[C@H]1C[C@@H](O)[C@@H](NCCNC(=O)CCc2ccc3n2[B-](F)(F)[N+]2=C(C)C=C(C)C2=C3)NC(=O)[C@@H]2[C@@H](O)CCN2C(=O)[C@H]([C@H](O)CCN)NC(=O)[C@H]([C@H](O)[C@@H](O)c2ccc(O)cc2)NC(=O)[C@@H]2C[C@@H](O)CN2C(=O)[C@H]([C@@H](C)O)NC1=O [CSF-BOD]	2 µg/mL (≈ 1.46 µM)	1 µg/mL (≈ 0.731 µM)	1 µg/mL (≈ 0.731 µM)	1 µg/mL (≈ 0.731 µM)	2 µg/mL (≈ 1.46 µM)	1 µg/mL (≈ 0.731 µM)	2 µg/mL (≈ 1.46 µM)	2 µg/mL (≈ 1.46 µM)	1 µg/mL (≈ 0.731 µM)	2 µg/mL (≈ 1.46 µM)	2 µg/mL (≈ 1.46 µM)	1 µg/mL (≈ 0.731 µM)	1 µg/mL (≈ 0.731 µM)			identical to that of caspofungin	1 µg/mL (≈ 0.731 µM)	1 µg/mL (≈ 0.731 µM)	MIC values higher than those of caspofungin ([5]; against the responsive strains from the tested panel): 8-32 fold
C#CCOc1ccc([C@H](O)[C@@H](O)[C@@H]2NC(=O)[C@@H]3C[C@@H](O)CN3C(=O)[C@H]([C@@H](C)O)NC(=O)[C@@H](NC(=O)CCCCCCCC[C@@H](C)C[C@@H](C)CC)C[C@@H](O)[C@@H](NCCN)NC(=O)[C@@H]3[C@@H](O)CCN3C(=O)[C@H]([C@H](O)CCN)NC2=O)cc1 [Compound 1a]		1 µg/mL (≈ 0.884 µM)	0.25 µg/mL (≈ 0.221 µM)	0.5 µg/mL (≈ 0.442 µM)	0.5 µg/mL (≈ 0.442 µM)	0.125 µg/mL (≈ 0.11 µM)	0.125 µg/mL (≈ 0.11 µM)	1 µg/mL (≈ 0.884 µM)	0.25 µg/mL (≈ 0.221 µM)	0.125 µg/mL (≈ 0.11 µM)	1 µg/mL (≈ 0.884 µM)	0.5 µg/mL (≈ 0.442 µM)	0.5 µg/mL (≈ 0.442 µM)	retained antifungal activities	1-8		0.063 µg/mL (≈ 0.0557 µM)	0.063 µg/mL (≈ 0.0557 µM)	
CC[C@H](C)C[C@H](C)CCCCCCCCC(=O)N[C@H]1C[C@@H](O)[C@@H](NCCN)NC(=O)[C@@H]2[C@@H](O)CCN2C(=O)[C@H]([C@H](O)CCN)NC(=O)[C@H]([C@H](O)[C@@H](O)c2ccc(OCc3cn(CCCNc4ccc([N+](=O)[O-])c5nonc45)nn3)cc2)NC(=O)[C@@H]2C[C@@H](O)CN2C(=O)[C@H]([C@@H](C)O)NC1=O [Compound 2]	1 µg/mL (≈ 0.717 µM)	4 µg/mL (≈ 2.87 µM)	4 µg/mL (≈ 2.87 µM)	2 µg/mL (≈ 1.43 µM)	2 µg/mL (≈ 1.43 µM)	1 µg/mL (≈ 0.717 µM)	2 µg/mL (≈ 1.43 µM)	4 µg/mL (≈ 2.87 µM)	2 µg/mL (≈ 1.43 µM)	1 µg/mL (≈ 0.717 µM)	4 µg/mL (≈ 2.87 µM)	2 µg/mL (≈ 1.43 µM)	2 µg/mL (≈ 1.43 µM)	retained antifungal activities	16-16	identical to that of caspofungin	1 µg/mL (≈ 0.717 µM)	1 µg/mL (≈ 0.717 µM)	
CC[C@H](C)C[C@H](C)CCCCCCCCC(=O)N[C@H]1C[C@@H](O)[C@@H](NCCN)NC(=O)[C@@H]2[C@@H](O)CCN2C(=O)[C@H]([C@H](O)CCN)NC(=O)[C@H]([C@H](O)[C@@H](O)c2ccc(O)cc2)NC(=O)[C@@H]2C[C@@H](O)CN2C(=O)[C@H]([C@@H](C)O)NC1=O [Caspofungin]																			effect on the uptake of probe 1 [6]: reduced the uptake of probe 1 in a dose-dependent manner; MIC (C. albicans CAF2-1; Candida albicans, SC5314): 0.063 µg/mL (≈ 0.0576 µM); cell viability, PI staining (C. albicans SC5314 cells; PBS): cells excluded the PI stain; cell viability, PI staining (C. albicans SC5314 cells; YPAD, after 15 min): viable; cell viability, PI staining (C. albicans SC5314 cells; YPAD, after 2 h): stained brightly with PI; MIC ([1]; Nakaseomyces glabratus): 0.125 µg/mL (≈ 0.114 µM); MIC (C. glabrata CST34; [17]): 0.063 µg/mL (≈ 0.0576 µM); MIC ([2]; Nakaseomyces glabratus): 0.063 µg/mL (≈ 0.0576 µM); MIC ([3]; Nakaseomyces glabratus): 0.063 µg/mL (≈ 0.0576 µM); MIC (C. albicans SC5314; Candida albicans, read-out: MIC): 0.031 µg/mL (≈ 0.0284 µM); MIC (C. albicans SN152; Candida albicans, strain no. 5, C. albicans SN152, read-out: MIC): 0.031 µg/mL (≈ 0.0284 µM); MIC (C. albicans ATCC 10231; Candida albicans, ATCC10231): 0.125 µg/mL (≈ 0.114 µM); MIC (C. glabrata ATCC 90030; Nakaseomyces glabratus, ATCC90030): 0.125 µg/mL (≈ 0.114 µM); MIC (C. albicans BWP17; Candida albicans, strain no. 9, BWP17, parental RM1000, read-out: MIC): 0.031 µg/mL (≈ 0.0284 µM); MIC ([4]; Nakaseomyces glabratus): 0.063 µg/mL (≈ 0.0576 µM); MIC (C. albicans ATCC 24433; Candida albicans, ATCC24433, read-out: MIC): 0.063 µg/mL (≈ 0.0576 µM); MIC (C. glabrata CST109; [17]): 0.125 µg/mL (≈ 0.114 µM); MIC (C. glabrata EF1620; [17]): 0.063 µg/mL (≈ 0.0576 µM); MIC (C. glabrata ATCC 2001; Nakaseomyces glabratus, ATCC2001): 0.125 µg/mL (≈ 0.114 µM)
